Measured values reported in patent US20240190890A1, “MK2 INHIBITORS AND USES THEREOF” (Bristol-Myers Squibb Company, priority 2022, published 2024).

Biological target: p38a activated, mitogen-activated protein kinase-activated protein kinase 2 (MAPKAP-K2 or MK2) enzyme (Homo sapiens (Human), UniProt P49137)
Experiment: MK2 Omnia continuous-read kinase assay for compound potency
Type: biochemical
Conditions: [MK-2]=0.4 nM, [ATP]=10 μM, [ST3-Sox]=10 μM; room temperature
In short: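 Continuous Sox-peptide fluorescence read (ex360/em485) every 71 s over 2 h at room temperature. Reactions: 10 μM each of ATP (at apparent Km) and S/T3-Sox, 0.4 nM p38a-activated MK2, pH 7.5 Tris/MgCl2 buffer. Initial rates yield % inhibition and IC50; single-exponential kobs values yield apparent kinact/KI.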

Sequence of p38a activated, mitogen-activated protein kinase-activated protein kinase 2 (MAPKAP-K2 or MK2) enzyme (P49137 whole entry): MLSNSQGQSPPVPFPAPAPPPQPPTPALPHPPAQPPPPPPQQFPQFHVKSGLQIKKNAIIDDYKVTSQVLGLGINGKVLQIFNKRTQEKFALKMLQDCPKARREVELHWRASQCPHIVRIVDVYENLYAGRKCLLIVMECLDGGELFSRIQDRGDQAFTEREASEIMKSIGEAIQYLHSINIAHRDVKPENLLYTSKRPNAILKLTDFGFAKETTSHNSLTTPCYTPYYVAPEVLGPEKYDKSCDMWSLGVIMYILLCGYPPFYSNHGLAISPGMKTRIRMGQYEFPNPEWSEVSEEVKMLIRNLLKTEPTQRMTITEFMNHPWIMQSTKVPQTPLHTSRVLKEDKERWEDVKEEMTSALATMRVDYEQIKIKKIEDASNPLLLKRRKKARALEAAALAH

| IC50 [nM] | Compound |
| --- | --- |
| 104 | C#Cc1cc(-c2ccc3c(ccc4sc5c(c43)NC[C@@H](C)NC5=O)n2)c(C)cn1 [Example I-111, (R)-3-(2-ethynyl-5-methylpyridin-4-yl)-10-methyl-9,10,11,12-tetrahydro-8H-[1,4]diazepino[5′,6′:4,5]thieno[3,2-f]quinolin-8-one] |
| 5 | C=Cc1cc(-c2ccc3c(ccc4sc5c(c43)NC[C@@H](C)NC5=O)n2)c(CO)cn1 [Example I-252, (R)-3-(5-(hydroxymethyl)-2-vinylpyridin-4-yl)-10-methyl-9,10,11,12-tetrahydro-8H-[1,4]diazepino[5′,6′:4,5]thieno[3,2-f]quinolin-8-one] |
| 123 | C=Cc1sncc1-c1ccc2c(ccc3sc4c(c32)NC[C@@H](C)NC4=O)n1 [Example I-229, (R)-10-methyl-3-(5-vinylisothiazol-4-yl)-9,10,11,12-tetrahydro-8H-[1,4]diazepino[5′,6′:4,5]thieno[3,2-f]quinolin-8-one] |
| 1000 | COc1nnc(/C=C/C(F)(F)F)cc1-c1ccc2c(ccc3sc4c(c32)NC[C@@H](C)NC4=O)n1 [Example I-200, (R,E)-3-(3-methoxy-6-(3,3,3-trifluoroprop-1-en-1-yl)pyridazin-4-yl)-10-methyl-9,10,11,12-tetrahydro-8H-[1,4]diazepino[5′,6′:4,5]thieno[3,2-f]quinolin-8-one] |
| 212 | C[C@@H]1CNc2c(sc3ccc4nc(-c5ccnc(Cl)c5F)ccc4c23)C(=O)N1 [Example I-221, (R)-3-(2-chloro-3-fluoropyridin-4-yl)-10-methyl-9,10,11,12-tetrahydro-8H-[1,4]diazepino[5′,6′:4,5]thieno[3,2-f]quinolin-8-one] |
| 192 | C=Cc1nc(Cl)c(Cl)n1-c1ccc2c(ccc3sc4c(c32)NC[C@@H](C)NC4=O)n1 [Example I-251, (R)-3-(4,5-dichloro-2-vinyl-1H-imidazol-1-yl)-10-methyl-9,10,11,12-tetrahydro-8H-[1,4]diazepino[5′,6′:4,5]thieno[3,2-f]quinolin-8-one] |
| 981 | C[C@@H]1CNc2c(sc3ccc4nc(-c5cc(Cl)nnc5OCCN5CCCC5)ccc4c23)C(=O)N1 [Example I-119, (R)-3-(6-chloro-3-(2-(pyrrolidin-1-yl)ethoxy)pyridazin-4-yl)-10-methyl-9,10,11,12-tetrahydro-8H-[1,4]diazepino[5′,6′:4,5]thieno[3,2-f]quinolin-8-one] |
| 83 | C#Cc1cncc(-c2ccc3c(ccc4sc5c(c43)NC[C@@H](C)NC5=O)n2)c1 [Example I-83, (R)-3-(5-ethynylpyridin-3-yl)-10-methyl-9,10,11,12-tetrahydro-8H-[1,4]diazepino[5′,6′:4,5]thieno[3,2-f]quinolin-8-one] |
| 18 | C[C@@H]1CNc2c(sc3ccc4nc(-c5nc(Cl)ncc5COC5(C)COC5)ccc4c23)C(=O)N1 [Example I-28, (R)-3-(2-chloro-5-(((3-methyloxetan-3-yl)oxy)methyl)pyrimidin-4-yl)-10-methyl-9,10,11,12-tetrahydro-8H-[1,4]diazepino[5′,6′:4,5]thieno[3,2-f]quinolin-8-one] |
| 97 | C[C@@H]1CNc2c(sc3ccc4nc(-n5ccnc5Cl)ccc4c23)C(=O)N1 [Example I-205, (R)-3-(2-chloro-1H-imidazol-1-yl)-10-methyl-9,10,11,12-tetrahydro-8H-[1,4]diazepino[5′,6′:4,5]thieno[3,2-f]quinolin-8-one] |
| 752 | C[C@@H]1CNc2c(sc3ccc4nc(-c5nc(Cl)c(C(F)(F)F)cc5F)ccc4c23)C(=O)N1 [Example I-274, (R)-3-(6-chloro-3-fluoro-5-(trifluoromethyl)pyridin-2-yl)-10-methyl-9,10,11,12-tetrahydro-8H-[1,4]diazepino[5′,6′:4,5]thieno[3,2-f]quinolin-8-one] |

Further lines, the compound ahead of its results:

| Compound | IC50 [nM] |
| --- | --- |
| C[C@@H]1CNc2c(sc3ccc4nc(-c5cc(Cl)nc(COC6CCN(C)CC6)n5)ccc4c23)C(=O)N1 [Example I-15, (R)-3-(6-chloro-2-(((1-methylpiperidin-4-yl)oxy)methyl)pyrimidin-4-yl)-10-methyl-9,10,11,12-tetrahydro-8H-[1,4]diazepino[5′,6′:4,5]thieno[3,2-f]quinolin-8-one] | 10 |
| C/C=C\c1cc(-c2ccc3c(ccc4sc5c(c43)NC[C@@H](C)NC5=O)n2)nc(COCC)n1 [Example I-36, (R,Z)-3-(2-(ethoxymethyl)-6-(prop-1-en-1-yl)pyrimidin-4-yl)-10-methyl-9,10,11,12-tetrahydro-8H-[1,4]diazepino[5′,6′:4,5]thieno[3,2-f]quinolin-8-one] | 12 |
| C[C@@H]1CNc2c(sc3ccc4nc(-c5cc(/C=C/CN(C)C)ncn5)ccc4c23)C(=O)N1 [Example I-115, (R,E)-3-(6-(3-(dimethylamino)prop-1-en-1-yl)pyrimidin-4-yl)-10-methyl-9,10,11,12-tetrahydro-8H-[1,4]diazepino[5′,6′:4,5]thieno[3,2-f]quinolin-8-one] | 37 |
| C#Cc1cc(-c2ccc3c(ccc4sc5c(c43)NC[C@@H](C)NC5=O)n2)c(CN2CCOCC2)cn1 [Example I-154, (R)-3-(2-ethynyl-5-(morpholinomethyl)pyridin-4-yl)-10-methyl-9,10,11,12-tetrahydro-8H-[1,4]diazepino[5′,6′:4,5]thieno[3,2-f]quinolin-8-one] | 49 |
| C[C@@H]1CNc2c(sc3ccc4nc(-c5cc(Cl)nc(C6CCN(C)CC6)c5)ccc4c23)C(=O)N1 [Example I-103, (R)-3-(2-chloro-6-(1-methylpiperidin-4-yl)pyridin-4-yl)-10-methyl-9,10,11,12-tetrahydro-8H-[1,4]diazepino[5′,6′:4,5]thieno[3,2-f]quinolin-8-one] | 46 |
| C=Cc1nnc(C)n1-c1ccc2c(ccc3sc4c(c32)NC[C@@H](C)NC4=O)n1 [Example I-223, (R)-10-methyl-3-(3-methyl-5-vinyl-4H-1,2,4-triazol-4-yl)-9,10,11,12-tetrahydro-8H-[1,4]diazepino[5′,6′:4,5]thieno[3,2-f]quinolin-8-one] | 1000 |
| C#Cc1cc(-c2ccc3c(ccc4sc5c(c43)NC[C@@H](C)NC5=O)n2)cc(N2CCOCC2)n1 [Example I-157, (R)-3-(2-ethynyl-6-morpholinopyridin-4-yl)-10-methyl-9,10,11,12-tetrahydro-8H-[1,4]diazepino[5′,6′:4,5]thieno[3,2-f]quinolin-8-one] | 214 |
| C[C@@H]1CNc2c(sc3ccc4nc(-c5nc(Cl)ncc5COC5(C)CCC5)ccc4c23)C(=O)N1 [Example I-27, (R)-3-(2-chloro-5-((1-methylcyclobutoxy)methyl)pyrimidin-4-yl)-10-methyl-9,10,11,12-tetrahydro-8H-[1,4]diazepino[5′,6′:4,5]thieno[3,2-f]quinolin-8-one] | 391 |
| C=Cc1cc(-c2ccc3c(ccc4sc5c(c43)NC[C@@H](C)NC5=O)n2)cc(N2CCCCC2)n1 [Example I-177, (R)-10-methyl-3-(2-(piperidin-1-yl)-6-vinylpyridin-4-yl)-9,10,11,12-tetrahydro-8H-[1,4]diazepino[5′,6′:4,5]thieno[3,2-f]quinolin-8-one] | 140 |
| C=Cc1cc(C(F)(F)F)nn1-c1ccc2c(ccc3sc4c(c32)NC[C@@H](C)NC4=O)n1 [Example I-241, (R)-10-methyl-3-(3-(trifluoromethyl)-5-vinyl-1H-pyrazol-1-yl)-9,10,11,12-tetrahydro-8H-[1,4]diazepino[5′,6′:4,5]thieno[3,2-f]quinolin-8-one] | 1000 |
